# Columns and labels:
# [1] = body and spleen weight / systemic toxicity, combination with Dox; type: in vivo, BALB/c mice; details: Dox 5 mg/kg i.p. every 72 hr; n=4 mice per group
# [2] = tested on: mammary tumor; details: ref [87]; cited from earlier work
SMILES,body and spleen weight [1],tumor ECM normalization and chemotherapy response [2]
"COc1cccc2c1C(=O)c1c(O)c3c(c(O)c1C2=O)C[C@@](O)(C(=O)CO)C[C@@H]3O[C@H]1C[C@H](N)[C@H](O)[C@H](C)O1 [Dox, doxorubicin]",loss of body and spleen weight,–
Cc1ccc(=O)n(-c2ccccc2)c1 [Pirfenidone],–,normalizes the tumor ECM for enhanced chemotherapy response
